Source: patent US10383850B2, “Indazole and indole derivatives as inhibitors of retinoic acid related orphan receptor gamma (ROR gamma) for the treatment of immune-related diseases” (ORCA PHARMACEUTICALS LIMITED, priority 2014, dated 2019)

Target: RORγ ligand binding domain (Homo sapiens (Human), UniProt P51449)
Assay: RORγ FRET assay (SRC-1 peptide binding to RORγ ligand binding domain)
Conditions: not given

Sequence of RORγ ligand binding domain (P51449 258-518): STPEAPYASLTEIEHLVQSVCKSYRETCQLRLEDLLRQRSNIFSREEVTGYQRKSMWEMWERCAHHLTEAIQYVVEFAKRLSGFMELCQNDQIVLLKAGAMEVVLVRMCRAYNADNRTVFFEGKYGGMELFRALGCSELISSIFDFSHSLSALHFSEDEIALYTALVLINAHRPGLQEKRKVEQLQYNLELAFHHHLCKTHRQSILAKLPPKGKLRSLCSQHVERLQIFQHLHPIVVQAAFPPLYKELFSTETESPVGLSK

Row | Compound | IC50 [nM]
1 | O=C(O)c1ccc(-n2cc(Cc3c(Cl)cccc3C(F)(F)F)c3cccnc32)cc1 [Compound 1, 4-(3-{[2-chloro-6-(trifluoromethyl)phenyl]methyl}-1H-pyrrolo[2,3-b]pyridin-1-yl)benzoic acid] | 196

Same assay, conditions: read-out: RORγ FRET - Mean IC50

Row | Compound | IC50 [nM]
2 | O=C(O)c1ccc(-n2cc(Cc3c(Cl)cccc3C(F)(F)F)c3ccccc32)cc1 [Compound 2, 4-(3-{[2-chloro-6-(trifluoromethyl)phenyl]methyl}-1H-indol-1-yl)benzoic acid] | 71.8

Test system: Human CD4+CCR6+ T cells (TH17 cell differentiation)
Assay: Human Th17 cell differentiation assay (IL-17A in extracellular media by ELISA)
Type: cell-based
Conditions: 96 h, IL17A in extracellular media by sandwich ELISA, 4 days with cytokine cocktail and antiCD2/CD3/28 beads, read-out: Inhibition of TH17 cell differentiation - Mean IC50

Row | Compound | IC50 [nM]
3 | O=C(O)c1ccc(-n2cc(Cc3c(Cl)cccc3C(F)(F)F)c3cccnc32)cc1 [Compound 1, 4-(3-{[2-chloro-6-(trifluoromethyl)phenyl]methyl}-1H-pyrrolo[2,3-b]pyridin-1-yl)benzoic acid] | 142
4 | COc1cccc(F)c1C(=O)c1cn(-c2ccc(C(=O)O)cc2)c2ccccc12 [Compound 4, 4-[3-(2-fluoro-6-methoxy-benzoyl)indol-1-yl]benzoic acid] | 1490
5 | COc1cccc(F)c1C(=O)c1cn(-c2ccc(C(=O)O)cc2)c2c(F)cccc12 [Compound 5, 4-[7-fluoro-3-(2-fluoro-6-methoxy-benzoyl)indol-1-yl]benzoic acid] | 821
6 | O=C(O)c1ccc(-n2cc(Cc3c(Cl)cccc3C(F)(F)F)c3ccccc32)cc1O [Compound 6, 4-[3-[[2-chloro-6-(trifluoromethyl)phenyl]methyl]indol-1-yl]-2-hydroxy-benzoic acid] | 4.81
7 | Cc1cccc2c(C(=O)c3c(Cl)cccc3C(F)(F)F)cn(-c3ccc(C(=O)O)cc3)c12 [Compound 7, 4-[3-[2-chloro-6-(trifluoromethyl)benzoyl]-7-methyl-indol-1-yl]benzoic acid] | 498
8 | O=C(O)c1ccc(-n2cc(C(=O)c3c(Cl)cccc3C(F)(F)F)c3cccc(F)c32)nc1 [Compound 8, 6-[3-[2-chloro-6-(trifluoromethyl)benzoyl]-7-fluoro-indol-1-yl]pyridine-3-carboxylic acid] | 39.5
9 | Cc1cccc2c(C(=O)c3c(Cl)cccc3Cl)cn(-c3ccc(C(=O)O)cc3)c12 [Compound 9, 4-[3-(2,6-dichlorobenzoyl)-7-methyl-indol-1-yl]benzoic acid] | 1600
10 | COc1cccc(F)c1C(=O)c1nn(-c2ccc(C(=O)O)cc2)c2ccccc12 [Compound 10, 4-[3-(2-fluoro-6-methoxy-benzoyl)indazol-1-yl]benzoic acid] | 455
11 | O=C(O)c1ccc(-n2cc(C(=O)c3c(F)cccc3OC(F)(F)F)c3cccc(F)c32)cc1 [Compound 12, 4-[7-fluoro-3-[2-fluoro-6-(trifluoromethoxy)benzoyl]indol-1-yl]benzoic acid] | 192
12 | O=C(O)c1ccc(-n2cc(C(=O)c3c(F)cccc3OC(F)(F)F)c3cccc(F)c32)c(F)c1 [Compound 13, 3-fluoro-4-[7-fluoro-3-[2-fluoro-6-(trifluoromethoxy)benzoyl]indol-1-yl]benzoic acid] | 181
13 | O=C(O)c1ccc(-n2cc(C(=O)c3c(F)cccc3OC(F)(F)F)c3ccccc32)cc1 [Compound 14, 4-[3-[2-fluoro-6-(trifluoromethoxy)benzoyl]indol-1-yl]benzoic acid] | 338

Same assay, conditions: 96 h, read-out: Inhibition of TH17 cell differentiation - Mean IC50

Row | Compound | IC50 [nM]
14 | O=C(O)c1ccc(-n2cc(Cc3c(Cl)cccc3C(F)(F)F)c3ccccc32)cc1 [Compound 2, 4-(3-{[2-chloro-6-(trifluoromethyl)phenyl]methyl}-1H-indol-1-yl)benzoic acid] | 33.6
15 | O=C(O)c1ccc(-n2cc(C(=O)c3c(Cl)cccc3C(F)(F)F)c3cncnc32)cc1 [Compound 3, 4-[5-[2-chloro-6-(trifluoromethyl)benzoyl]pyrrolo[2,3-d]pyrimidin-7-yl]benzoic acid] | 356
